# Measured values from patent US20130303535A1, “NOVEL BICYCLIC HETEROCYCLIC COMPOUND” (priority 2008, published 2013).
# Target: TTX resistant Na channel of human SNS-expressing cell (SNS) (Homo sapiens, UniProt Q9Y5Y9)
# Test: cell-based
# Conditions: CHO-K1, compound concentration 12.5 μM; read-out: SNS inhibitory rate (%)
# Chain of TTX resistant Na channel of human SNS-expressing cell (SNS) (Q9Y5Y9 whole entry, looked up): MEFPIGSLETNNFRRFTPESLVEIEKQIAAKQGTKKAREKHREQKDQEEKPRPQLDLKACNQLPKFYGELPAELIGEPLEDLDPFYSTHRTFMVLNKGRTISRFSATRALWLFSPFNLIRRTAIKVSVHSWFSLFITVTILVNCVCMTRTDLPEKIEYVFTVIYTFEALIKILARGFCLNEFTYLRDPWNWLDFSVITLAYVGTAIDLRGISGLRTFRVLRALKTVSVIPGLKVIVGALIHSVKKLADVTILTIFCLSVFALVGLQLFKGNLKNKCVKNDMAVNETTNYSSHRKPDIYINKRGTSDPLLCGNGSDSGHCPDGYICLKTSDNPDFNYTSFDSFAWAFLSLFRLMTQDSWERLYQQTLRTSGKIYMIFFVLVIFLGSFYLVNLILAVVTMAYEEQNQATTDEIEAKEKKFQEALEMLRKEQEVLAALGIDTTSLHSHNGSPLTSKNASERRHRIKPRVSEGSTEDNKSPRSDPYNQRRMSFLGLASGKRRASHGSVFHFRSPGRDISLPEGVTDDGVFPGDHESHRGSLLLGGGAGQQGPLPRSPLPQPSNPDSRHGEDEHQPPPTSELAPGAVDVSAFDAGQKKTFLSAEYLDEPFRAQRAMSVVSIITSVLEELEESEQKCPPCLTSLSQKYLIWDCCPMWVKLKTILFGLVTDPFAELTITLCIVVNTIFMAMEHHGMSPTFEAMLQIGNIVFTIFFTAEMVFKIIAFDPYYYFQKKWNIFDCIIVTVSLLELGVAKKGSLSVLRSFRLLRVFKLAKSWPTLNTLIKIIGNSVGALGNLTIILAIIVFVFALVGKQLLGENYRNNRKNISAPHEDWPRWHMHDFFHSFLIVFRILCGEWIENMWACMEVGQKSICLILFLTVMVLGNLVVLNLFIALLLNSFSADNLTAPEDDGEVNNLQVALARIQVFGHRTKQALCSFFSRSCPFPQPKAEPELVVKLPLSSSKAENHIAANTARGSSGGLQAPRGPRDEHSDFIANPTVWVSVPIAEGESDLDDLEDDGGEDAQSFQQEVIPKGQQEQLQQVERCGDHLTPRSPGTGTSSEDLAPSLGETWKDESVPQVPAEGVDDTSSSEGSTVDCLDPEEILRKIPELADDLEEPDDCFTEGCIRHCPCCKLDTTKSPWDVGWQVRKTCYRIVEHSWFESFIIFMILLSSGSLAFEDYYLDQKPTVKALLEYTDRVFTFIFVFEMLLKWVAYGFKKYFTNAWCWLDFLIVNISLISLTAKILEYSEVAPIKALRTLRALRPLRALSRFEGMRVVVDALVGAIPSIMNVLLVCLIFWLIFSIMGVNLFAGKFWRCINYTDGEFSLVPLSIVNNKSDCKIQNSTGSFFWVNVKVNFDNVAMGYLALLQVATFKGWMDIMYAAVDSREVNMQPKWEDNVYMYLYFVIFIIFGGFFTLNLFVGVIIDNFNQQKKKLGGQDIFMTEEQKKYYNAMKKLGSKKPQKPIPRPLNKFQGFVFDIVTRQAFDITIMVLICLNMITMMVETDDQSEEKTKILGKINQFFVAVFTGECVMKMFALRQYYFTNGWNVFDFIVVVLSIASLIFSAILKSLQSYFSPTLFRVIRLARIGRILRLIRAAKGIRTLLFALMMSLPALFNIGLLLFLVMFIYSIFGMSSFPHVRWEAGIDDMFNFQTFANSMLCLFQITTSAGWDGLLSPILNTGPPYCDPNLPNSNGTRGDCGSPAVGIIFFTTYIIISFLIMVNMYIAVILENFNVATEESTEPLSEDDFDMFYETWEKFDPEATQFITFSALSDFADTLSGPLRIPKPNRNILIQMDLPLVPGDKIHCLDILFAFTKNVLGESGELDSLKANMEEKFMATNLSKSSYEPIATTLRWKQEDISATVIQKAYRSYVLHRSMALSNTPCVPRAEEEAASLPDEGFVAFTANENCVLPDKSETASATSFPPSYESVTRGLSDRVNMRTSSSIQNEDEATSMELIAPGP
row,SMILES,inhibition at 12.5 µM
1,"CCOCCn1c(CN[C@@H](C)C(N)=O)nc2ccc(Oc3ccc(C(C)(C)C)cc3)cc21 [Example 74, N^2-{[6-(4-tert-butylphenoxy)-1-(2-ethoxyethyl)-1H-benzimidazol-2-yl]methyl}-L-alaninamide]",58.2%
2,"CCOCCn1c(CN[C@@H](C)C(N)=O)nc2ccc(Oc3ccc(OC)cc3)cc21 [Example 75, N^2-{[1-(2-ethoxyethyl)-6-(4-methoxyphenoxy)-1H-benzimidazol-2-yl]methyl}-L-alaninamide]",0%
3,"CCOCCn1c(CN[C@@H](C)C(N)=O)nc2ccc(OCc3ccccc3)cc21 [Example 76, N^2-{[6-(benzyloxy)-1-(2-ethoxyethyl)-1H-benzimidazol-2-yl]methyl}-L-alaninamide]",18.8%
4,"CCOCCn1c(CNC(C)(C)C(N)=O)nc2ccc(OCc3ccccc3)cc21 [Example 77, N^2-{[6-(benzyloxy)-1-(2-ethoxyethyl)-1H-benzimidazol-2-yl]methyl}-2-methylalaninamide]",16%
5,"CCOCCn1c(CN[C@@H](C)C(N)=O)nc2ccc(OCc3ccc(F)cc3)cc21 [Example 78, N^2-({1-(2-ethoxyethyl)-6-[(4-fluorobenzyl)oxy]-1H-benzimidazol-2-yl}methyl)-L-alaninamide]",22.2%
6,"CCOCCn1c(CN[C@@H](C)C(N)=O)nc2ccc(Oc3ccccc3)nc21 [Example 79, N^2-{[3-(2-ethoxyethyl)-5-phenoxy-3H-imidazo[4,5-b]pyridin-2-yl]methyl}-L-alaninamide]",3.5%
7,"CCOCCn1c(CNCC(N)=O)nc2ccc(Oc3ccccc3)nc21 [Example 80, N^2-{[3-(2-ethoxyethyl)-5-phenoxy-3H-imidazo[4,5-b]pyridin-2-yl]methyl}glycinamide]",2.5%
8,"CCOCCn1c(CN[C@@H](C)C(N)=O)nc2cc(F)c(Oc3ccc(F)cc3)cc21 [Example 81, N^2-{[1-(2-ethoxyethyl)-5-fluoro-6-(4-fluorophenoxy)-1H-benzimidazol-2-yl]methyl}-L-alaninamide]",69.1%
9,"C[C@H](NCc1nc2ccc(Oc3ccc(F)cc3)cc2n1C1CCN(C(=O)OC(C)(C)C)CC1)C(N)=O [Example 82, tert-butyl 4-[2-({[(2S)-1-amino-1-oxopropan-2-yl]amino}methyl)-6-(4-fluorophenoxy)-1H-benzimidazol-1-yl]piperidine-1-carboxylate]",30.7%
10,"C[C@H](NCc1nc2ccc(Oc3ccc(F)cc3)cc2n1C1CCNCC1)C(N)=O [Example 83, N^2-{[6-(4-fluorophenoxy)-1-(piperidin-4-yl)-1H-benzimidazol-2-yl]methyl}-L-alaninamide]",0%
11,"CC(C)NC(=O)N1CCC(n2c(CN[C@@H](C)C(N)=O)nc3ccc(Oc4ccc(F)cc4)cc32)CC1 [Example 84, 4-[2-({[(2S)-1-amino-1-oxopropan-2-yl]amino}methyl)-6-(4-fluorophenoxy)-1H-benzimidazol-1-yl]-N-(propan-2-yl)piperidine-1-carboxamide]",76.8%
12,"CC(=O)N1CCC(n2c(CN[C@@H](C)C(N)=O)nc3ccc(Oc4ccc(F)cc4)cc32)CC1 [Example 85, N^2-{[1-(1-acetylpiperidin-4-yl)-6-(4-fluorophenoxy)-1H-benzimidazol-2-yl]methyl}-L-alaninamide]",24.9%
13,"C[C@H](NCc1nc2ccc(Oc3ccc(F)cc3)cc2n1C1CCN(S(C)(=O)=O)CC1)C(N)=O [Example 86, N^2-({6-(4-fluorophenoxy)-1-[1-(methylsulfonyl)piperidin-4-yl]-1H-benzimidazol-2-yl}methyl)-L-alaninamide]",8.3%
14,"CCOCCn1c(CN[C@@H](C)C(=O)NCC(C)(C)O)nc2ccc(Oc3ccc(F)cc3)cc21 [Example 87, N^2-{[1-(2-ethoxyethyl)-6-(4-fluorophenoxy)-1H-benzimidazol-2-yl]methyl}-N-(2-hydroxy-2-methylpropyl)-L-alaninamide]",90.1%
15,CCOCCn1c(CN[C@@H](C)C(=O)NCCOC)nc2ccc(Oc3ccc(F)cc3)cc21 [Example 88],83.5%
16,CCOCCn1c(CN[C@@H](C)C(=O)NCCN2CCOCC2)nc2ccc(Oc3ccc(F)cc3)cc21 [Example 89],83%
17,CCOCCn1c(CN[C@@H](C)C(=O)N2CCOCC2)nc2ccc(Oc3ccc(F)cc3)cc21 [Example 90],96.1%
18,"COCCn1c(CNC(C)(C)C(N)=O)nc2ccc(Oc3ccc(F)cc3)cc21 [Example 91, N^2-{[6-(4-fluorophenoxy)-1-(2-methoxyethyl)-1H-benzimidazol-2-yl]methyl}-2-methylalaninamide]",76.4%
19,"CCOCCn1c(CN[C@@H](C)C(N)=O)nc2cc(Cl)c(-c3ccc(F)cc3)cc21 [Example 92, N^2-{[5-chloro-1-(2-ethoxyethyl)-6-(4-fluorophenyl)-1H-benzimidazol-2-yl]methyl}-L-alaninamide]",66.7%
20,CCOCCn1c(CN[C@@H](C)C(N)=O)nc2ccc(Oc3ccc(F)cc3Cl)cc21 [Example 93],82.1%
21,CCOCCn1c(CN[C@@H](C)C(N)=O)nc2ccc(Oc3ccc(C(C)C)cc3)cc21 [Example 94],63.9%
22,CCOCCn1c(CN[C@@H](C)C(N)=O)nc2ccc(Oc3ccc4c(c3)CCC4)cc21 [Example 95],26.8%
23,CCn1c(CN[C@@H](C)C(N)=O)nc2ccc(Oc3ccc(C)cc3)cc21 [Example 96],84.8%
24,CCn1c(CN[C@@H](C)C(N)=O)nc2ccc(Oc3ccc(F)c(F)c3)cc21 [Example 97],82.4%

row,SMILES,inhibition at 12.5 µM
1,CCn1c(CN[C@@H](C)C(N)=O)nc2ccc(Oc3ccc(F)cc3F)cc21 [Example 98],69.8%
2,C[C@H](NCc1nc2ccc(Oc3ccc(F)cc3F)cc2n1C1CC1)C(N)=O [Example 99],65.4%
3,C[C@H](NCc1nc2ccc(Oc3ccc(OC(F)(F)F)cc3)cc2n1C1CC1)C(N)=O [Example 100],72.1%
4,Cc1ccc(Oc2ccc3nc(CN[C@@H](C)C(N)=O)n(CC(C)(C)O)c3c2)cc1 [Example 101],85.2%
5,CCOCCn1c(CN[C@@H](C)C(N)=O)nc2ccc(Oc3ccc(CC)cc3)cc21 [Example 102],96.3%
6,C[C@H](NCc1nc2ccc(Oc3ccc(OC(F)(F)F)cc3)cc2n1CC(C)(C)O)C(N)=O [Example 103],87.9%
7,CCn1c(CN[C@@H](C)C(N)=O)nc2ccc(Oc3ccc(OC(F)(F)F)cc3)cc21 [Example 104],83.6%
8,C[C@H](NCc1nc2ccc(Oc3ccc(F)cc3F)cc2n1CC(C)(C)O)C(N)=O [Example 105],75.1%
9,CCOCCn1c(CN[C@@H](C)C(=O)N2CCNC(=O)C2)nc2ccc(Oc3ccc(F)cc3)cc21 [Example 106],86.4%
10,CCOCCn1c(CN[C@@H](C)C(=O)N2CCNC(C#N)C2)nc2ccc(Oc3ccc(F)cc3)cc21 (some centres unmarked) [Example 107],83.7%
11,CCOCCn1c(CN[C@@H](C)C(=O)N2CCNC(C(F)(F)F)C2)nc2ccc(Oc3ccc(F)cc3)cc21 (some centres unmarked) [Example 108],85.3%
12,"CCOCCn1c(CN[C@@H](C)C(N)=O)nc2cc(F)c(-c3ccc(F)cc3)cc21 [Example 109, N^2-{[1-(2-ethoxyethyl)-5-fluoro-6-(4-fluorophenyl)-1H-benzimidazol-2-yl]methyl}-L-alaninamide]",89.3%
13,"CCn1c(CN[C@@H](C)C(N)=O)nc2ccc(-c3ccc(F)cc3)cc21 [Example 110, N^2-{[1-ethyl-6-(4-fluorophenyl)-1H-benzimidazol-2-yl]methyl}-L-alaninamide]",9.8%
14,"CCn1c(CN[C@@H](C)C(N)=O)nc2cc(F)c(-c3ccc(F)cc3)cc21 [Example 111, N^2-{[1-ethyl-5-fluoro-6-(4-fluorophenyl)-1H-benzimidazol-2-yl]methyl}-L-alaninamide]",88.4%
15,"CCOCCn1c(CN[C@@H](C)C(N)=O)nc2c(Cl)cc(-c3ccc(F)cc3)cc21 [Example 112, N^2-{[4-chloro-1-(2-ethoxyethyl)-6-(4-fluorophenyl)-1H-benzimidazol-2-yl]methyl}-L-alaninamide]",0%
16,"CCOCCn1c(CN[C@@H](C)C(N)=O)nc2cc(C)c(-c3ccc(F)cc3)cc21 [Example 113, N^2-{[1-(2-ethoxyethyl)-6-(4-fluorophenyl)-5-methyl-1H-benzimidazol-2-yl]methyl}-L-alaninamide]",64.7%
17,"CCOCCn1c(CN[C@@H](C)C(N)=O)nc2c(F)cc(-c3ccc(F)cc3)cc21 [Example 114, N^2-{[1-(2-ethoxyethyl)-4-fluoro-6-(4-fluorophenyl)-1H-benzimidazol-2-yl]methyl}-L-alaninamide]",6.5%
18,"CCOCCn1c(CN[C@@H](C)C(N)=O)nc2cc(C(F)(F)F)c(-c3ccc(F)cc3)cc21 [Example 115, N^2-{[1-(2-ethoxyethyl)-6-(4-fluorophenyl)-5-(trifluoromethyl)-1H-benzimidazol-2-yl]methyl}-L-alaninamide]",3.5%
19,"C[C@H](NCc1nc2cc(F)c(-c3ccc(F)cc3)cc2n1C1CCOCC1)C(N)=O [Example 116, N^2-{[5-fluoro-6-(4-fluorophenyl)-1-(tetrahydro-2H-pyran-4-yl)-1H-benzimidazol-2-yl]methyl}-L-alaninamide]",33.2%
20,"C[C@H](NCc1nc2ccc(Oc3ccc(F)cc3)cc2n1CCO)C(N)=O [Example 117, N^2-{[6-(4-fluorophenoxy)-1-(2-hydroxyethyl)-1H-benzimidazol-2-yl]methyl}-L-alaninamide]",78.8%
21,"CCOCCn1c(CN[C@@H](C)C(N)=O)nc2cc(Cl)c(Oc3ccc(F)cc3)cc21 [Example 118, N^2-{[5-chloro-1-(2-ethoxyethyl)-6-(4-fluorophenoxy)-1H-benzimidazol-2-yl]methyl}-L-alaninamide]",64.5%
22,Cc1ccc(Oc2ccc3nc(CN[C@@H](C)C(N)=O)n(C[C@@H]4CCCO4)c3c2)cc1 [Example 119],87.2%
23,C[C@H](NCc1nc2ccc(Oc3ccc(OC(F)(F)F)cc3)cc2n1C[C@@H]1CCCO1)C(N)=O [Example 120],92.4%
